From patent publication US8343475B2, “Small cationic antimicrobial peptides” (priority 2006, dated 2013) come the findings set out here.

For assay [1], the system named is Pseudomonas aeruginosa PAO1 strain H103. It counts as cell-based. As to conditions: PAO1. The procedure, abridged: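 Modified broth microdilution MIC in Mueller Hinton medium, peptides diluted in 0.01% acetic acid/0.2% BSA, polypropylene plates. Inoculum 2-7×10^5 CFU/ml, overnight at 37 °C; MIC is the lowest concentration with no visible growth.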
Assay [2] has as its system lab isolate of Candida albicans. It counts as cell-based. As to conditions: lab isolate of. The procedure, abridged:
(§1)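 Modified microdilution, MH broth, polypropylene wells. Peptide dilutions (10× stocks in 0.01% HOAc/0.2% BSA) mixed 1:10 with medium; cells 2-7×10^5 CFU/ml; 37° C overnight; endpoint no growth.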

The subject of assay [3] is clinical isolate of Staphylococcus epidermidis. The assay is classed as cell-based. As to conditions: clinical isolate of. Summed up: as §1
A further assay has as its system Escherichia coli UB1005. It counts as cell-based. As to conditions: UB1005. Summed up:
as §1

The test system of the next assay is human PBMC. The assay is described as follows: Adjuvant properties: cytokine/chemokine induction by peptides alone and with CpG oligonucleotides and polyphosphazene P6. It counts as cell-based. The settings on record: peptide alone 20 ug/mL, background subtracted. The protocol: Venous blood (20 ml) from healthy volunteers was collected in Vacutainer® collection tubes containing sodium heparin as an anticoagulant (Becton Dickinson, Mississauga, ON) in accordance with UBC ethical approval and guidelines. Blood was diluted 1:1 with complete RPMI 1640 medium and separated by centrifugation over a Ficoll-Paque® Plus (Amersham Biosciences, Piscataway, N.J., USA) density gradient. White blood cells were isolated from the buffy coat, washed twice in RPMI 1640 complete medium, and the number of peripheral blood mononuclear cells (PBMC) was determined by trypan blue exclusion. PBMC (5×10^5) were seeded into 12-well tissue culture dishes (Falcon; Becton Dickinson) at 0.75 to 1×10^6 cells/ml at 37° C. in 5% CO2. The above conditions were chosen to mimic conditions for circulating blood monocytes entering tissues at the site of infection via extravasation.
Following incubation of the cells under various treatment regimens, the tissue culture supernatants were centrifuged at 1000×g for 5 min, then at 10,000×g for 2 min to obtain cell-free samples. Supernatants were aliquoted and then stored at −20° C. prior to assay for various chemokines by capture ELISA (eBioscience and BioSource International Inc., CA, USA respectively)
(§2) It is well accepted that vaccine immunization is best achieved by co-administration of an adjuvant. The precise mechanism by which these adjuvants work has eluded immunologists but appears to work in part by upregulating elements of innate immunity that smooth the transition to adaptive (antigen-specific) immunity (Bendelac A and R. Medzhitov. 2002. Adjuvants of immunity: Harnessing innate immunity to promote adaptive immunity J. Exp. Med. 195:F19-F23). Within this concept there are several possible avenues by which adjuvants might work including the attraction of immune cells into the site at which a particular antigen is injected, through e.g., upregulation of chemokines, the appropriate activation of cells when they reach that site, which can be caused by local cell or tissue damage releasing endogenous adjuvants or through specific cell activation by the adjuvants, and the compartmentalization of immune responses to the site of immunization (the so-called “depot” effect). […] Therefore we studies the ability of our small host defence peptides to upregulate adjuvant responses in both human PBMC and cord blood mononuclear cells (CBMC) (representing the responses of blood cells from neonates), both alone (Table 10 and 11) and in combination with other proposed adjuvant agents that might work through other mechanisms such as CpG oligodeoxy ribonucleotides (TLR9 agionists that activate cells through interaction with TLR9 and fit into 3 different classes A=molecule 2336, B=10103 and C=2395), and polyphosphazene P6 (which induces a depot effect).

Assay [4] has as its system cord blood mononuclear cells (CBMC). Described as above. The settings on record: peptide alone 20 ug/mL, background subtracted. The assay is classed as cell-based, human.
Text: as §2

≈ marks a conversion by molar mass, not a printed value. Residues, ends and D or L forms follow the SMILES beside them.

For the molecule `CC[C@H](C)[C@H](N)C(=O)N[C@@H](Cc1c[nH]c2ccccc12)C(=O)N[C@H](C(=O)N[C@H](C(=O)N[C@@H](Cc1c[nH]c2ccccc12)C(=O)N[C@@H](CCCNC(=N)N)C(=O)N[C@@H](CCCNC(=N)N)C(N)=O)[C@@H](C)CC)C(C)C` [HH18, IWVIWRR-NH2] (H-IWVIWRR-NH2; N-terminus assumed), the “MIC P. aerug” value in assay [1] amounted to 50 mg/L (≈ 48.7 µM). Further, in assay [2], the “MIC C. albicans” value worked out at 25 mg/L (≈ 24.3 µM). For the same molecule, in assay [3], the “MIC S. epi.” value was determined as 6 mg/L (≈ 5.84 µM). Moreover, the “MIC E. coli” value against Escherichia coli UB1005 was 6 mg/L (≈ 5.84 µM). In the assay with human PBMC, the “Cytokines induced: Gro-α” value was 143 pg/mL, the “Cytokines induced: IL-6” value is 180 pg/mL, the “Cytokines induced: IL-8” value stood at 2558 pg/mL and the “Cytokines induced: MCP-1” value was 64 pg/mL. In addition, in the assay on human PBMC, the “Cytokines induced: MCP-3” value worked out at 3 pg/mL and the “Cytokines induced: TNF-α” value was determined as 56 pg/mL. In assay [4], the “Cytokines induced: Gro-α” value worked out at 55 pg/mL, the “Cytokines induced: IL-6” value worked out at 7 pg/mL, the “Cytokines induced: IL-8” value amounted to 372 pg/mL and the “Cytokines induced: MCP-1” value came out at 54 pg/mL. Moreover, in assay [4], the “Cytokines induced: MCP-3” value was -24 pg/mL and the “Cytokines induced: TNF-α” value was -4 pg/mL.
